Experimental data from patent US9458140B2, “Furanone compounds as kinase inhibitors” (Eternity Bioscience Inc., priority 2013, dated 2016).
One block for each molecule: values may come before it.

How the values were obtained:
[1] = biological target: BRAF^V600E (Homo sapiens (Human), UniProt P15056, V600E); assay: BRAF^V600E enzymatic activity assay (LanthaScreen kinase assay); type: biochemical; conditions: LanthaScreen TR-FRET, ATP 2 μM, 60 minutes, room temperature; read-out: BRAF^V600E Lantha IC50
BRAF^V600E, sequence (P15056 whole entry V600E): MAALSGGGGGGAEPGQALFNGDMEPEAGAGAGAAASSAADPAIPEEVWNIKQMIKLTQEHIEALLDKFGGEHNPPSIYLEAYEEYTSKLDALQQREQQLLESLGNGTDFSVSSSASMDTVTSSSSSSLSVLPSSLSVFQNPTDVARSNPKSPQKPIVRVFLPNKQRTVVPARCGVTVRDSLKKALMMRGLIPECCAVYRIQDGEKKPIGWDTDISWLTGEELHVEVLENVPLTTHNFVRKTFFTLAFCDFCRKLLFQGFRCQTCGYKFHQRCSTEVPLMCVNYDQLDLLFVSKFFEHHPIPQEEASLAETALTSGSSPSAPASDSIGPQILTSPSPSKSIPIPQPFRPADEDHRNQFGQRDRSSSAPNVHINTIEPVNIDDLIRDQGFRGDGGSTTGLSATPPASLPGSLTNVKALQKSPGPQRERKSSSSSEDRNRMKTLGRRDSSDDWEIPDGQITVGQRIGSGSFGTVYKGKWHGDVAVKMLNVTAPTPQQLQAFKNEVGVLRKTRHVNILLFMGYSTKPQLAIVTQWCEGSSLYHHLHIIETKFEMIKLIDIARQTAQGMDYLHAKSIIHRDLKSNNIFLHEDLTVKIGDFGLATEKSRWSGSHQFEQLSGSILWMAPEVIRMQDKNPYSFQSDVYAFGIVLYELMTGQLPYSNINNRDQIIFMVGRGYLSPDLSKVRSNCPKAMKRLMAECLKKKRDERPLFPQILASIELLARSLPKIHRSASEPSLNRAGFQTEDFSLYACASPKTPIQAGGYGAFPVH
Description: BRAF^V600E enzymatic activity assay: The BRAF^V600E enzymatic assay was performed using a LanthaScreen kinase assay kit purchased from Life Technologies (Grand Island, N.Y.). The assay was conducted according to the procedure provided in the assay kit. […] The final reaction volume for each reaction was 10 μl. The reaction was stopped by addition of 10 μl of TR-FRET dilution buffer kinase supplemented with kinase quench buffer (10 mM final) and Tb-anti-pMAP2K1 (2 nM final). […] IC50 value was calculated using appropriate programs in GraphPad Prism by plotting the logarithm of the concentration versus percent inhibition.

[2] = tested on: A375 cells; assay: Cell proliferation assay (CellTiter-Glo), A375 cell growth; type: cell-based; conditions: 3-day treatment
Description: Cell proliferation assay: A375, Colo-205, Calu-6, and SW-480 cells were purchased from American Type Culture Collection (USA). All cells were cultured in the recommended medium and serum concentration. Cells were maintained at 37° C. in a humidified atmosphere with 5% CO2. For cell proliferation assay, cells were seeded in 96-well pates at a density of 1,000 to 5,000 cells per well and cultured overnight at 37° C. in a medium supplemented with 5-10% FBS. On the next day, the test articles at various concentrations or vehicle control (1% DMSO) were added into cell culture. After 3-day treatment, the growth of cells was assayed by the CellTiter-Glo® Luminestceaent Cell Viability Assay (Promega). IC50 value was calculated using GraphPad Prism by plotting the logarithm of the concentration versus percent inhibition of cell growth.

SMILES: Nc1nccc(C2=C(c3cccc(NS(=O)(=O)c4c(F)cccc4F)c3Cl)C(=O)C3(CCCC3)O2)n1 [Example 17]
- IC50 [1]: 0.0037 µM
- IC50 ([2]; Homo sapiens, A-375, 72 h): 0.15 µM

SMILES: CCNc1nccc(C2=C(c3cc(Cl)cc(NS(=O)(=O)c4cc(F)ccc4F)c3F)C(=O)C(C)(C)O2)n1 [Example 27]
- IC50 [1]: 0.0028 µM
- IC50 ([2]; Homo sapiens, A-375, 72 h): 0.32 µM

SMILES: CC1(C)OC(c2ccnc(NCCC#N)n2)=C(c2cc(Cl)cc(NS(=O)(=O)c3c(F)cccc3F)c2F)C1=O [Example 21]
- IC50 [1]: 0.0025 µM
- IC50 ([2]; Homo sapiens, A-375, 72 h): 0.2 µM

SMILES: CC(C)CC1(C)OC(c2ccnc(NCCC#N)n2)=C(c2cc(Cl)cc(NS(=O)(=O)c3c(F)cccc3F)c2F)C1=O (stereo not drawn) [Example 20]
- IC50 [1]: 0.029 µM
- IC50 ([2]; Homo sapiens, A-375, 72 h): 0.16 µM

SMILES: COCCNc1nccc(C2=C(c3cc(Cl)cc(NS(=O)(=O)c4cc(F)ccc4F)c3F)C(=O)C(C)(C)O2)n1 [Example 26]
- IC50 [1]: 0.05 µM
- IC50 ([2]; Homo sapiens, A-375, 72 h): 0.26 µM

SMILES: C[C@H](O)CNc1nccc(C2=C(c3cc(Cl)cc(NS(=O)(=O)c4cc(F)ccc4F)c3F)C(=O)C(C)(C)O2)n1 [Example 24]
- IC50 [1]: 0.024 µM
- IC50 ([2]; Homo sapiens, A-375, 72 h): 0.41 µM

- IC50 ([2]; Homo sapiens, A-375, 72 h): 0.018 µM
SMILES: CC1(C)OC(c2ccnc(N)n2)=C(c2cc(Cl)cc(NS(=O)(=O)c3c(F)cccc3F)c2F)C1=O [Example 11]

SMILES: CC1(C)OC(c2ccnc(NCCO)n2)=C(c2cc(Cl)cc(NS(=O)(=O)c3cc(F)ccc3F)c2F)C1=O [Example 25]
- IC50 [1]: 0.011 µM
- IC50 ([2]; Homo sapiens, A-375, 72 h): 0.16 µM

SMILES: CC1(C)OC(c2ccnc(N)n2)=C(c2cc(Cl)cc(NS(=O)(=O)c3cccc(F)c3)c2F)C1=O [Example 14]
- IC50 [1]: 0.0012 µM
- IC50 ([2]; Homo sapiens, A-375, 72 h): 0.12 µM

SMILES: COC(=O)N[C@@H](C)CNc1nccc(C2=C(c3cccc(NS(=O)(=O)c4c(F)cccc4F)c3F)C(=O)C(C)(CC(C)C)O2)n1 (stereo partly drawn) [Example 7]
- IC50 [1]: 0.027 µM
- IC50 ([2]; Homo sapiens, A-375, 72 h): 0.87 µM

SMILES: CC(C)CC1(C)OC(c2ccnc(N)n2)=C(c2cc(Cl)cc(NS(=O)(=O)c3c(F)cccc3F)c2F)C1=O (stereo not drawn) [Example 19]
- IC50 [1]: 0.027 µM
- IC50 ([2]; Homo sapiens, A-375, 72 h): 0.041 µM

SMILES: CC1(C)OC(c2ccnc(NCCC#N)n2)=C(c2cc(Cl)cc(NS(=O)(=O)c3cc(F)ccc3F)c2F)C1=O [Example 23]
- IC50 [1]: 0.013 µM
- IC50 ([2]; Homo sapiens, A-375, 72 h): 0.051 µM

SMILES: CC(C)CC1(C)OC(c2ccnc(NCC3CCCO3)n2)=C(c2cccc(NS(=O)(=O)c3c(F)cccc3F)c2F)C1=O (stereo not drawn) [Example 10]
- IC50 [1]: 0.75 µM

- IC50 ([2]; Homo sapiens, A-375, 72 h): 0.35 µM
SMILES: CC1(C)OC(c2ccnc(N)n2)=C(c2cc(Cl)cc(NS(=O)(=O)c3ccc(F)cc3F)c2F)C1=O [Example 13]

SMILES: CC(C)CC1(C)OC(c2ccnc(N)n2)=C(c2cccc(NS(=O)(=O)c3c(F)cccc3F)c2F)C1=O (stereo not drawn) [Example 5]
- IC50 [1]: 0.092 µM
- IC50 ([2]; Homo sapiens, A-375, 72 h): 2.3 µM

SMILES: Nc1nccc(C2=C(c3cc(Cl)cc(NS(=O)(=O)c4cc(F)ccc4F)c3F)C(=O)C3(CCCC3)O2)n1 [Example 28]
- IC50 [1]: 0.0026 µM
- IC50 [2]: 0.011 µM

SMILES: Nc1nccc(C2=C(c3cc(Cl)cc(NS(=O)(=O)c4c(F)cccc4F)c3Cl)C(=O)C3(CCCC3)O2)n1 [Example 18]
- IC50 [1]: 0.0024 µM
- IC50 ([2]; Homo sapiens, A-375, 72 h): 0.007 µM

SMILES: CC(C)CC1(C)OC(c2ccnc(NCc3nccs3)n2)=C(c2cccc(NS(=O)(=O)c3c(F)cccc3F)c2F)C1=O (stereo not drawn) [Example 8]
- IC50 [1]: 0.26 µM
- IC50 ([2]; Homo sapiens, A-375, 72 h): 27 µM

SMILES: CC1(C)OC(c2ccnc(N)n2)=C(c2cc(Cl)cc(NS(=O)(=O)c3cc(F)ccc3F)c2F)C1=O [Example 12]
- IC50 [1]: 0.0006 µM
- IC50 ([2]; Homo sapiens, A-375, 72 h): 0.0014 µM

SMILES: CC1(C)OC(c2ccnc(N)n2)=C(c2cc(Cl)cc(NS(=O)(=O)c3ccccc3F)c2F)C1=O [Example 15]
- IC50 [1]: 0.0025 µM
- IC50 ([2]; Homo sapiens, A-375, 72 h): 0.11 µM

SMILES: COC(=O)N[C@@H](C)CNc1nccc(C2=C(c3cccc(NS(=O)(=O)c4c(F)cccc4F)c3F)C(=O)C(C)(C)O2)n1 [Example 2]
- IC50 [1]: 0.097 µM
- IC50 ([2]; Homo sapiens, A-375, 72 h): 0.63 µM

SMILES: CC(C)CC1(C)OC(c2ccnc(NC[C@@H]3CCCN3)n2)=C(c2cccc(NS(=O)(=O)c3c(F)cccc3F)c2F)C1=O (stereo partly drawn) [Example 9]
- IC50 [1]: 2 µM

SMILES: COC(=O)N[C@@H](C)CNc1nccc(C2=C(c3cc(Cl)cc(NS(=O)(=O)c4cc(F)ccc4F)c3F)C(=O)C(C)(C)O2)n1 [Example 22]
- IC50 [1]: 0.05 µM
- IC50 ([2]; Homo sapiens, A-375, 72 h): 0.18 µM

SMILES: CC(C)CC1(C)OC(c2ccnc(NCCC#N)n2)=C(c2cccc(NS(=O)(=O)c3c(F)cccc3F)c2F)C1=O (stereo not drawn) [Example 6]
- IC50 [1]: 0.0096 µM
- IC50 ([2]; Homo sapiens, A-375, 72 h): 12 µM

SMILES: Nc1nccc(C2=C(c3cccc(NS(=O)(=O)c4c(F)cccc4F)c3F)C(=O)C3(CCCC3)O2)n1 [Example 4]
- IC50 ([2]; Homo sapiens, A-375, 72 h): 0.51 µM

SMILES: Nc1nccc(C2=C(c3cc(Cl)cc(NS(=O)(=O)c4c(F)cccc4F)c3F)C(=O)C3(CCCC3)O2)n1 [Example 29]
- IC50 [1]: 0.0013 µM
- IC50 [2]: 0.018 µM

SMILES: CC1(C)OC(c2ccnc(NCCC#N)n2)=C(c2cccc(NS(=O)(=O)c3c(F)cccc3F)c2F)C1=O [Example 3]
- IC50 [1]: 0.013 µM
- IC50 ([2]; Homo sapiens, A-375, 72 h): 0.47 µM

SMILES: CCCS(=O)(=O)Nc1cc(Cl)cc(C2=C(c3ccnc(N)n3)OC(C)(CC(C)C)C2=O)c1F (stereo not drawn) [Example 16]
- IC50 [1]: 0.07 µM
- IC50 ([2]; Homo sapiens, A-375, 72 h): 0.25 µM
